Data: patent publication US10550095B2, “Cancerous cell growth inhibiting compounds” (WISYS TECHNOLOGY FOUNDATION, INC., priority 2016, dated 2020)
Values joined by “and” are separate entries in the source; they are usually repeats but may differ in a detail not shown here. Equal values may be shown once. “Also recorded” adds a separate entry of the source.

What was measured:
zebrafish embryos [1] = test: Skin Lightening Efficacy of All Analogs on Zebrafish Embryos (Table 1); assay type: in vivo
Protocol: (§1) The testing protocols for these compounds are as follows: • a. […] The embryos were monitored and imaged throughout their development to track the development of melanin pigment relative to a control group to which water was administered (Protocol 1). • b. […] The embryos were again monitored and imaged throughout their development relative to a control group to which water was administered (Protocol 2). • c. Additionally, to test the ability of the pigment to recover after being treated with our drugs, all embryos were treated at 24 hpf with the chemicals until the 48 hpf or 64 hpf time period, then washed with water to remove the treatment. The embryos were again monitored and imaged throughout their development relative to a control group to which water was administered (Protocol 3).
(§2) The black pigment (or melanin) is very easy to observe in zebrafish. In brief, adult zebrafish are taken to breed embryos. Morphologically normal embryos of 24 hours post fertilization (hpf) stage were selected for incubation in the drugs from 24 to 76 hours. During the incubation, the embryos are monitored and imaged (see FIGS. 1 and 3) to track the development of melanin. […] To broaden the comparison with other skin-whitening products, this project can also test at least three other compounds, Kojic acid, Gallic acid and Haginin. […] In the meantime, the whole organism context also allows us to examine the toxicological profile, if any, of these compounds.

B16-F10 melanoma cells [2] = test: Melanin in melanoma cells; assay type: cell-based, mouse; details: for Melanin: melanoma cells
Description: (MEK-I is a known MEK inhibitor as a comparison purchased from Sigma): […]

B16-F10 melanoma cells [3] = test: cells; assay type: cell-based
zebrafish embryos [4] = test: Inhibition of melanin synthesis in zebrafish embryos, treated 24-76 hpf (Protocol 1); assay type: in vivo; details: for pigmentation in comparison to the control group: zebrafish embryos treated 24 to 76 hpf
Protocol: as §1, §2

zebrafish embryos [5] = test: Effect on existing melanin and/or melanocytes, embryos treated at 48 hpf (Protocol 2); assay type: in vivo
Protocol: (§3) The testing protocols for these compounds are as follows: • a. […] The embryos were monitored and imaged throughout their development to track the development of melanin pigment relative to a control group to which water was administered (Protocol 1). • b. To test the effects of the drugs on existing melanin and/or melanocytes, the embryos were treated with the chemicals at 48 hpf, after pigment had developed. The embryos were again monitored and imaged throughout their development relative to a control group to which water was administered (Protocol 2). • c. Additionally, to test the ability of the pigment to recover after being treated with our drugs, all embryos were treated at 24 hpf with the chemicals until the 48 hpf or 64 hpf time period, then washed with water to remove the treatment. The embryos were again monitored and imaged throughout their development relative to a control group to which water was administered (Protocol 3).
To test the effects of the drugs on existing melanin and/or melanocytes, the embryos were treated with the chemicals A11, MEK-I and PTU at 48 hpf, after pigment had developed. The embryos were again monitored and imaged throughout their development according to Protocol 2.

zebrafish embryos [6] = test: Toxicity in developing zebrafish embryos
Protocol: as §2

zebrafish embryos [7] = test: Pigment recovery after compound withdrawal (Protocol 3); assay type: in vivo; details: treated 24-48 hpf or 24-64 hpf, then washed; by 72 hpf
Protocol: as §3
It has been reported that melanin usually reappears after the withdrawal of skin whitening products. […] The pigmentation was monitored closely for 48-72 hours. Similarly, this experiment was repeated at least three times to gain a reproducible result.

MEK = MEK activity (FIG. 12)
Description: FIG. 12 are photo illustrations of MEK activity with exemplary embodiments of the human drug treatments of the present invention; and
(§4) The intracellular signaling pathway that involves Raf and MEK is known to be the major pathway to regulate cell proliferation. Many current melanoma drugs such as cobimetinib works by inhibiting Raf or MEK. While they are effective in inhibiting melanoma growth, they exert different degrees of side effect on normal cells by inhibiting the Raf-MEK pathway. […] Also, with regard to FIG. 13, the compound SK-03-92 is shown to inhibit melanoma cell growth by approximately 10% at 10 μM and at 100% at 40 μM.

[8] = system: transgenic melanoma zebrafish embryos; test: Melanoma formation and recovery in transgenic melanoma zebrafish embryos; assay type: in vivo
Protocol: as §4

tyrosinase = test: RT-qPCR of tyrosinase in melanoma cells; assay type: cell-based, mouse
Description: (§5) To understand how A11 inhibits melanoma proliferation, we examined the MITF expression level in A11-treated B16-F10 cells by western blot and RT-qPCR.
(§6) The results of several qPCR experiments using melanoma cells were compiled in FIG. 20. Pax3 and sox10 are genes determine the melanocyte precursors while mit-f is the specific transcription factor that initiates melanocyte differentiation. Dct and tyr genes are expressed in differentiated melanocytes. […] The decrease in magnitude is not significant likely due to the very heterogeneous cell types in melanoma.

MITF [9] = test: RT-qPCR of MITF (mit-f) in melanoma cells; assay type: cell-based, mouse
Description: as §5, §6

MITF [10] = test: Western blot for MITF protein level in B16-F10 cells; assay type: cell-based, mouse; details: western blot vs DMSO control (FIG. 21)
Description: as §5

MAPK = test: Western blot for phosphorylated MAPK in melanoma cells; assay type: cell-based, mouse; details: melanoma cells (FIG. 19A)
Description: We wanted to further understand the molecular mechanism of A11 and its derivatives by examining the activities of MAPK, Akt, and PRPP pathways which regulate cell proliferation and cell death.
MAPK is involved in the major cell proliferation signaling pathway. In many cancer cells, MAPK is activated at high level by phosphorylation. Using the anti-phosphorylated-MAPK (p-MAPK) on western blot, it is very easy to understand the proliferation ability in cells. […] While the results are against our hypothesis and current understanding, it raises a very interesting mechanism of A11 which requires further investigation. […] The current understanding is that activated MAPK and Akt both lead to cell proliferation.

[11] = system: DCT (dopachrome tautomerase); test: RT-qPCR of DCT in melanoma cells; assay type: cell-based, mouse
Description: as §5, §6

Pax3 = test: RT-qPCR of Pax3 in melanoma cells; assay type: cell-based, mouse
Description: as §5, §6

COc1cc(O)cc(/C=C/Sc2ccccc2C(C)C)c1 [SK0501]
Pigmentation (zebrafish embryos [1]; concentration not given): 0%

COc1cc(O)cc(/C=C/Oc2cccc(OC)c2)c1 [Analog A8]
Pigmentation (zebrafish embryos [1]; concentration not given): 10%

COc1cc(O)cc(/C=C/Oc2cccc(C)c2)c1 [Analog A9]
Melanin (B16-F10 melanoma cells [2]; 10 μM): 101%
Melanin (B16-F10 melanoma cells [2]; 40 μM): 96%
Average Melanoma growth (from the previous chart) (B16-F10 melanoma cells [3]; 10 μM): 78%
Average Melanoma growth (from the previous chart) (B16-F10 melanoma cells [3]; 40 μM): 76%
Growth (B16-F10 melanoma cells [3]; melanoma cells, 10 μM): 78%
Growth (B16-F10 melanoma cells [3]; melanoma cells, 40 μM): 76%
Pigmentation (zebrafish embryos [1]; concentration not given): 10%

COc1cc(O)cc(/C=C/Sc2ccccc2)c1 [CL4]
Melanin (B16-F10 melanoma cells [2]; 10 μM): 107%
Average Melanoma growth (from the previous chart) (B16-F10 melanoma cells [3]; 10 μM): 93%
Growth (B16-F10 melanoma cells [3]; melanoma cells, 10 μM): 93%
Pigmentation (zebrafish embryos [1]; concentration not given): 0%

COc1cc(O)cc(/C=C/n2ccc(C(F)(F)F)n2)c1 [SK0951]
Pigmentation (zebrafish embryos [1]; concentration not given): 0%

COc1cc(O)cc(/C=C/c2cccs2)c1 [CL6]
Pigmentation (zebrafish embryos [1]; concentration not given): 0%

CC1=C(/C=C/C(C)=C/C=C/C(C)=C/C(=O)O)C(C)(C)CCC1 [Tretinoin]
pigmentation in comparison to the control group (zebrafish embryos [4]; 0.1%): 80%

OC[C@H]1O[C@@H](Oc2ccc(O)cc2)[C@H](O)[C@@H](O)[C@@H]1O [Arbutin]
pigmentation in comparison to the control group (zebrafish embryos [4]; 100 μM): 30%

NC(=S)Nc1ccccc1 [PTU, phenylthiourea, reference compound]
Melanin (B16-F10 melanoma cells [2]; concentration not given): 59% and 67% and 89% and 64%
pigmentation inhibition (in words) (zebrafish embryos [4]; zebrafish embryos treated 24-76 hpf): nearly complete pigmentation loss
Pigmentation (zebrafish embryos [4]; zebrafish embryos treated 24-76 hpf, 0.003%): 10%
Average Melanoma growth (from the previous chart) (B16-F10 melanoma cells [3]; concentration not given): 107%
Growth (B16-F10 melanoma cells [3]; melanoma cells, concentration not given): 87% and 107% and 128% and 106%
effect on existing pigment (in words) (zebrafish embryos [5]): remove existing pigment
existing pigment remaining (zebrafish embryos [5]): 20%
toxicity in embryos (in words) (zebrafish embryos [6]; developing zebrafish embryos): various levels of toxicity
pigmentation recovered after wash-off (zebrafish embryos [7]): 100%

COc1cc(O)cc(/C=C/c2cc3ccccc3s2)c1 [SK0392, (E)-3-(2-(Benzo[b]thiophen-2-yl)vinyl)-5-methoxyphenol]
Melanin (B16-F10 melanoma cells [2]; 10 μM): 97%
melanin in B16-F10 cells (in words) (B16-F10 melanoma cells [2]; mouse cell line B16-F10): decrease of melanin
Average Melanoma growth (from the previous chart) (B16-F10 melanoma cells [3]; 10 μM): 100%
inhibition at 10 µM (B16-F10 melanoma cells [3]; Mus musculus, B16-F10, 10 μM (FIG. 13), read-out: inhibition of melanoma cell growth): ~10%
inhibition at 40 µM (B16-F10 melanoma cells [3]; Mus musculus, B16-F10, 40 μM (FIG. 13), read-out: inhibition of melanoma cell growth): 100%
inhibition of melanoma cell growth / cell number (in words) (B16-F10 melanoma cells [3]; melanoma cells): decrease of melanin as well as the cell number
Growth (B16-F10 melanoma cells [3]; melanoma cells, 10 μM): 100%
MEK activity (in words) (MEK): increasing MEK activity
formation and recovery of melanoma (in words) [8]: inhibited the formation and recovery of melanoma
toxicity in embryos (in words) (zebrafish embryos [6]; zebrafish, in vivo): almost no detectable toxicity
Pigmentation (zebrafish embryos [1]; 50 uM): 20% (50 uM)

COc1cc(/C=C/Oc2ccccc2)cc(OC)c1 [CL2]
Pigmentation (zebrafish embryos [1]; concentration not given): 5%

N#CC(=C(N)Sc1ccccc1N)C(C#N)=C(N)Sc1ccccc1N [MEK-I, reference compound]
Melanin (B16-F10 melanoma cells [2]; 10 μM): 104% and 78% and 94%
Melanin (B16-F10 melanoma cells [2]; 20 μM): 82% and 84%
Pigmentation (zebrafish embryos [4]; zebrafish embryos treated 24-76 hpf, 10 μM): 60%
Average Melanoma growth (from the previous chart) (B16-F10 melanoma cells [3]; 10 μM): 67%
Average Melanoma growth (from the previous chart) (B16-F10 melanoma cells [3]; 20 μM): 35%
Growth (B16-F10 melanoma cells [3]; melanoma cells, 10 μM): 72% and 62%
tyrosinase expression (in words) (tyrosinase): decreased
MITF (mit-f) mRNA expression (in words) (MITF [9]): no effect on the MITF transcription
MITF protein level (in words) (MITF [10]): high level of MITF
effect on existing pigment (in words) (zebrafish embryos [5]): has no effect; also recorded: ineffective
amount of p-MAPK / MAPK activity (in words) (MAPK): effectively suppresses the amount of p-MAPK
toxicity in embryos (in words) (zebrafish embryos [6]; developing zebrafish embryos): various levels of toxicity; also recorded: Notocord toxicity is present
pigmentation recovered after wash-off (zebrafish embryos [7]): 100%
DCT expression (in words) [11]: decreased
Pax3 expression (in words) (Pax3): increases Pax3 transcription

COc1ccc(S/C=C/c2cc(O)cc(OC)c2)cc1 [SK0503]
Pigmentation (zebrafish embryos [1]; concentration not given): 0%

COc1cc(O)cc(/C=C/n2ncc3ccccc32)c1 [SK0954]
Pigmentation (zebrafish embryos [1]; concentration not given): 0%

COc1cc(O)cc(/C=C/n2ccc3ccccc32)c1 [SK0953]
Melanin (B16-F10 melanoma cells [2]; 20 μM): 96%
Average Melanoma growth (from the previous chart) (B16-F10 melanoma cells [3]; 20 μM): 71%
Growth (B16-F10 melanoma cells [3]; melanoma cells, 20 μM): 71%
Pigmentation (zebrafish embryos [1]; concentration not given): 0%

NC(=O)c1cccnc1 [Niacinamide]
pigmentation in comparison to the control group (zebrafish embryos [4]; 1%): 10%

COc1cc(O)cc(/C=C/Oc2ccccc2)c1 [CL1]
Pigmentation (zebrafish embryos [1]; 40 uM): 0% (40 uM)
